Numbers after ± are expanded uncertainties.
Key:
[1] = Crystal; DTA
[2] = Molar enthalpy of transition or fusion; settings: Crystal; DSC

Normal melting temperature [1]	Molar enthalpy of transition or fusion [2]	SMILES
185.6 ± 0.4 °C	5.98 ± 0.167 kcal/mol	Nc1ccc(C(=O)O)cc1 [4-aminobenzoic acid]
170.4 ± 0.4 °C	7.43 ± 0.191 kcal/mol	NNC(=O)c1ccncc1 [isonicotinic acid hydrazide]
189.4 ± 0.4 °C	6.48 ± 0.167 kcal/mol	NC(=O)c1cnccn1 [pyrazinecarboxamide]

Source: the NIST ThermoML archive (doi:10.1016/j.jct.2015.08.022)
